# Experimental data published in patent US20250250257A1, “NOVEL CRYSTALLINE FORMS” (Assembly Biosciences, Inc., priority 2021, published 2025).
# Entries after “also recorded” stand apart in the source; their conditions may differ.
# Assays:
# Assay type in all cases: physicochemical
# [1] = Approximate solubility test of Compound I at room temperature / 50° C. in different solvents; conditions: thermodynamic from solid
# Method: The specific steps are as follows: Charge about 5 mg of Compound I into a clean glass vial, […] visible particles (add up to 1.5 mL of solvent), record the amount of solvent at last for the calculation of solubility.
# [2] = DVS (water sorption, hygroscopicity, form change post-DVS); conditions: for form change post-DVS (XRPD): after DVS (desorption and resorption); for hygroscopicity (from DVS): based on water sorption at 80% RH
# [3] = Approximate solubility of Compound I, Type 1 at RT in twenty solvents (stepwise solvent addition); conditions: for solubility: thermodynamic from solid, read-out: Approximate Solubility (mg/mL) at RT
# Method: The solubility of Compound I, Type 1 (6036531-01-A) was estimated at RT in twenty different solvents. Approximately 2 mg solids were added into a 3-mL glass vial. Solvents in Table 39 were then added stepwise (50 μL per step) into the vials until the solids were dissolved or a total volume of 2 mL was reached.
# [4] = Competitive slurry studies, solid form checked by XRPD (thermodynamic stability of forms)
# Method: Competitive slurry studies with Type 1 and the material produced from manufacture (Type 1 and 8 mixture) were performed at 25 and 50° C. in THF, EtOH and EtOAc. The solid form was checked by XRPD on day 3 and day 7.
structure (smiles),measurement,setting,value
"Cn1cnc(C2CC3CC(O)(c4cc(OCC(C)(C)O)nn4C)CC3C2)c1C(=O)Nc1ccc(F)c(Cl)c1 (stereo not shown) [Compound I, N-(3-Chloro-4-fluorophenyl)-4-(5-hydroxy-5-(3-(2-hydroxy-2-methylpropoxy)-1-methyl-1H-pyrazol-5-yl)octahydropentalen-2-yl)-1-methyl-1H-imidazole-5-carboxamide]",solubility,"[1]; organic solvent or mixture, ACN, 20-25° C., read-out: Solubility (mg/mL) 20-25° C.",< 3.3 mg/mL
same,solubility,"[1]; organic solvent or mixture, ACN, 50° C., read-out: Solubility (mg/mL) 50° C.",< 3.3 mg/mL
same,solubility,"[1]; organic solvent or mixture, Acetone, 20-25° C., read-out: Solubility (mg/mL) 20-25° C.",< 3.3 mg/mL
same,solubility,"[1]; organic solvent or mixture, Acetone, 50° C., read-out: Solubility (mg/mL) 50° C.",3.8 to 4 mg/mL
same,solubility,"[1]; organic solvent or mixture, Acetone/H2O = 95/5(V/V), 20-25° C., read-out: Solubility (mg/mL) 20-25° C.",5 to 5.1 mg/mL
same,solubility,"[1]; organic solvent or mixture, Acetone/H2O = 95/5(V/V), 50° C., read-out: Solubility (mg/mL) 50° C.",6.5 to 6.7 mg/mL
same,solubility,"[1]; organic solvent or mixture, DCM, 20-25° C., read-out: Solubility (mg/mL) 20-25° C.",< 3.3 mg/mL
same,solubility,"[1]; organic solvent or mixture, DCM, 50° C., read-out: Solubility (mg/mL) 50° C.",< 3.3 mg/mL
same,solubility,"[1]; organic solvent or mixture, DMSO, 20-25° C., read-out: Solubility (mg/mL) 20-25° C.",167 to 200 mg/mL
same,solubility,"[1]; organic solvent or mixture, DMSO, 50° C., read-out: Solubility (mg/mL) 50° C.",250 to 333 mg/mL
same,solubility,"[1]; organic solvent or mixture, EA, 20-25° C., read-out: Solubility (mg/mL) 20-25° C.",< 3.3 mg/mL
same,solubility,"[1]; organic solvent or mixture, EA, 50° C., read-out: Solubility (mg/mL) 50° C.",< 3.3 mg/mL
same,solubility,"[1]; organic solvent or mixture, EtOH, 20-25° C., read-out: Solubility (mg/mL) 20-25° C.",8 to 8.3 mg/mL
same,solubility,"[1]; organic solvent or mixture, EtOH, 50° C., read-out: Solubility (mg/mL) 50° C.",20 to 20.4 mg/mL
same,solubility,"[1]; organic solvent or mixture, EtOH/H2O = 95/5(V/V), 20-25° C., read-out: Solubility (mg/mL) 20-25° C.",22.2 to 23.2 mg/mL
same,solubility,"[1]; organic solvent or mixture, EtOH/H2O = 95/5(V/V), 50° C., read-out: Solubility (mg/mL) 50° C.",45.4 to 47.6 mg/mL
same,solubility,"[1]; organic solvent or mixture, Heptane, 20-25° C., read-out: Solubility (mg/mL) 20-25° C.",< 3.3 mg/mL
same,solubility,"[1]; organic solvent or mixture, Heptane, 50° C., read-out: Solubility (mg/mL) 50° C.",< 3.3 mg/mL
same,solubility,"[1]; organic solvent or mixture, IPA, 20-25° C., read-out: Solubility (mg/mL) 20-25° C.",< 3.3 mg/mL
same,solubility,"[1]; organic solvent or mixture, IPA, 50° C., read-out: Solubility (mg/mL) 50° C.",5 to 5.1 mg/mL
same,solubility,"[1]; organic solvent or mixture, IPA/H2O = 95/5(V/V), 20-25° C., read-out: Solubility (mg/mL) 20-25° C.",< 3.3 mg/mL
same,solubility,"[1]; organic solvent or mixture, IPA/H2O = 95/5(V/V), 50° C., read-out: Solubility (mg/mL) 50° C.",8 to 8.1 mg/mL
same,solubility,"[1]; organic solvent or mixture, IPAc, 20-25° C., read-out: Solubility (mg/mL) 20-25° C.",< 3.3 mg/mL
same,solubility,"[1]; organic solvent or mixture, IPAc, 50° C., read-out: Solubility (mg/mL) 50° C.",< 3.3 mg/mL
same,solubility,"[1]; organic solvent or mixture, MTBE, 20-25° C., read-out: Solubility (mg/mL) 20-25° C.",< 3.3 mg/mL
same,solubility,"[1]; organic solvent or mixture, MTBE, 50° C., read-out: Solubility (mg/mL) 50° C.",< 3.3 mg/mL
same,solubility,"[1]; organic solvent or mixture, MeOH, 20-25° C., read-out: Solubility (mg/mL) 20-25° C.",32.2 to 33.3 mg/mL
same,solubility,"[1]; organic solvent or mixture, MeOH, 50° C., read-out: Solubility (mg/mL) 50° C.",74.1 to 76.9 mg/mL
same,solubility,"[1]; organic solvent or mixture, THF, 20-25° C., read-out: Solubility (mg/mL) 20-25° C.",12.5 to 12.6 mg/mL
same,solubility,"[1]; organic solvent or mixture, THF, 50° C., read-out: Solubility (mg/mL) 50° C.",18.1 to 18.5 mg/mL
same,solubility,"[1]; organic solvent or mixture, Toluene, 20-25° C., read-out: Solubility (mg/mL) 20-25° C.",< 3.3 mg/mL
same,solubility,"[1]; organic solvent or mixture, Toluene, 50° C., read-out: Solubility (mg/mL) 50° C.",< 3.3 mg/mL
same,solubility,"[1]; water, H2O, 20-25° C., read-out: Solubility (mg/mL) 20-25° C.",< 3.3 mg/mL
same,solubility,"[1]; water, H2O, 50° C., read-out: Solubility (mg/mL) 50° C.",< 3.3 mg/mL
"Cn1cnc([C@@H]2C[C@@H]3C[C@@](O)(c4cc(OCC(C)(C)O)nn4C)C[C@@H]3C2)c1C(=O)Nc1ccc(F)c(Cl)c1 [Type 1, N-(3-chloro-4-fluorophenyl)-4-((2s,3aR,5r,6aS)-5-hydroxy-5-(3-(2-hydroxy-2-methylpropoxy)-1-methyl-1H-pyrazol-5-yl)octahydropentalen-2-yl)-1-methyl-1H-imidazole-5-carboxamide]",water content at 80% RH by DVS,[2]; 80% RH,0.67%
same,form change post-DVS (XRPD),[2],no form change
same,hygroscopicity (from DVS),[2],slightly hygroscopic
same,Characterization (of approximate solubility),[3]; 1-Butanol,Moderate
same,Characterization (of approximate solubility),[3]; 2-MeTHF,Moderate
same,Characterization (of approximate solubility),[3]; Acetone,Moderate
same,Characterization (of approximate solubility),[3]; Acetonitrile,Poor
same,Characterization (of approximate solubility),[3]; CPME,Poor
same,Characterization (of approximate solubility),[3]; DCM,Poor
same,Characterization (of approximate solubility),[3]; DMF,High
same,Characterization (of approximate solubility),[3]; DMSO,High
same,Characterization (of approximate solubility),[3]; EtOH,High
same,Characterization (of approximate solubility),[3]; H2O,Poor
same,Characterization (of approximate solubility),[3]; IPA,Moderate
same,Characterization (of approximate solubility),[3]; IPAc,Poor
same,Characterization (of approximate solubility),[3]; MEK,Moderate
same,Characterization (of approximate solubility),[3]; MIBK,Poor
same,Characterization (of approximate solubility),[3]; MTBE,Poor
same,Characterization (of approximate solubility),[3]; MeOH,High
same,Characterization (of approximate solubility),[3]; THF,High
same,Characterization (of approximate solubility),[3]; Toluene,Poor
same,Characterization (of approximate solubility),[3]; n-Heptane,Poor
same,Characterization (of approximate solubility),[3]; n-Propanol,Moderate
same,solubility,"[3]; organic solvent or mixture, 1-Butanol",2.4 to 8 mg/mL
same,solubility,"[3]; organic solvent or mixture, 2-MeTHF",2.2 to 7.3 mg/mL
same,solubility,"[3]; organic solvent or mixture, Acetone",2.3 to 7.7 mg/mL
same,solubility,"[3]; organic solvent or mixture, Acetonitrile",< 2 mg/mL
same,solubility,"[3]; organic solvent or mixture, CPME",< 2.2 mg/mL
same,solubility,"[3]; organic solvent or mixture, DCM",< 2.4 mg/mL
same,solubility,"[3]; organic solvent or mixture, DMF",> 48 mg/mL
same,solubility,"[3]; organic solvent or mixture, DMSO",> 48 mg/mL
same,solubility,"[3]; organic solvent or mixture, EtOH",20 to 40 mg/mL
same,solubility,"[3]; organic solvent or mixture, IPA",2.2 to 7.3 mg/mL
same,solubility,"[3]; organic solvent or mixture, IPAc",< 2.1 mg/mL
same,solubility,"[3]; organic solvent or mixture, MEK",2.2 to 7.3 mg/mL
same,solubility,"[3]; organic solvent or mixture, MIBK",< 2.2 mg/mL
same,solubility,"[3]; organic solvent or mixture, MTBE",< 2 mg/mL
same,solubility,"[3]; organic solvent or mixture, MeOH",> 42 mg/mL
same,solubility,"[3]; organic solvent or mixture, THF",21 to 42 mg/mL
same,solubility,"[3]; organic solvent or mixture, Toluene",< 2.5 mg/mL
same,solubility,"[3]; organic solvent or mixture, n-Heptane",< 2.3 mg/mL
same,solubility,"[3]; organic solvent or mixture, n-Propanol",2.2 to 7.3 mg/mL
same,solubility,"[3]; water, H2O",< 2.5 mg/mL
"Cn1cnc([C@@H]2C[C@@H]3C[C@@](O)(c4cc(OCC(C)(C)O)nn4C)C[C@@H]3C2)c1C(=O)Nc1ccc(F)c(Cl)c1 [Type 2, N-(3-chloro-4-fluorophenyl)-4-((2s,3aR,5r,6aS)-5-hydroxy-5-(3-(2-hydroxy-2-methylpropoxy)-1-methyl-1H-pyrazol-5-yl)octahydropentalen-2-yl)-1-methyl-1H-imidazole-5-carboxamide]",RH range in which the form is stable (DVS),[2],30-95 % RH
same,water content at 80% RH by DVS,[2]; 80% RH,9.2%
same,form change post-DVS (XRPD),[2],Form change was observed post-DVS to a lower order hydrate; also recorded: converted to Type 3
"Cn1cnc([C@@H]2C[C@@H]3C[C@@](O)(c4cc(OCC(C)(C)O)nn4C)C[C@@H]3C2)c1C(=O)Nc1ccc(F)c(Cl)c1 [Type 8, N-(3-chloro-4-fluorophenyl)-4-((2s,3aR,5r,6aS)-5-hydroxy-5-(3-(2-hydroxy-2-methylpropoxy)-1-methyl-1H-pyrazol-5-yl)octahydropentalen-2-yl)-1-methyl-1H-imidazole-5-carboxamide]",thermodynamic stability among all forms discovered,[4],the most thermodynamically stable form discovered to date
same,relative thermodynamic stability of the form,"[4]; at 25 and 50° C., versus Type 1",the more thermodynamically stable form
same,water update at 80% RH (DVS),[2]; 80% RH,0.1%
same,form change post-DVS (XRPD),[2],No change in crystalline form
same,hygroscopicity (from DVS),[2],non-hygroscopic
